SMILES strings stand for the structures.

Results on 26 compounds are retold here after patent publication US20230135894A1, “MK2 DEGRADERS AND USES THEREOF” (Kymera Therapeutics, Inc., priority 2021, published 2023).

Test [1] has as its target T1, MK2 (Homo sapiens, UniProt P49137). Briefly: MK2 degradation in human SW1353 cells (MSD, 24 h). In kind it is cell-based. Further details: endogenous in cells; host or cells: SW-1353 (ATCC HTB-94). The settings on record: for Dmax: read-out: MK2 MSD SW 1353 24 h Dmax %; for DC50: read-out: MK2 MSD SW1353 degradation 24 h GMean External Abs DC50. Summed up:
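SW1353 chondrosarcoma cells were treated with up to 10-point serial dilutions (0.1% DMSO) for 24 h at 37 °C, then lysed in RIPA buffer. MK2 levels were quantified by MSD sandwich immunoassay; DC50 came from a 4-parameter logistic fit normalised to DMSO-treated cells (high) and lysis buffer (low).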

For test [2], the target named is T1, MK2. The test can be described thus: MK2 degradation in human THP-1 monocytic cells (MSD, 24 h). In kind it is cell-based. The following applies: for Dmax: THP-1, THP-1 cells; for DC50 / MK2 MSD THP-1 degradation 24 h GMean External Abs DC50: THP-1 cells; for DC50: read-out: MK2 MSD THP-1 degradation 24 h GMean External Abs DC50. The arrangement: endogenous in cells; key to MK2 MSD THP-1 degradation 24 h GMean External Abs DC50: A (<0.001 μM); B (0.001-0.01 μM); C (0.01-0.1 μM); D (>0.1 μM); —: “-”=not tested or inactive. The procedure, abridged: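 THP-1 cells (200,000/well) treated 24 h at 37 °C with compound dilution series (up to 10 points, 0.1% DMSO). MK2 in RIPA lysates quantified by MSD sandwich immunoassay. DC50 from 4-parameter logistic fit, DMSO-treated cells as high and lysis buffer as low signal.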

T1 sequence (P49137 whole entry): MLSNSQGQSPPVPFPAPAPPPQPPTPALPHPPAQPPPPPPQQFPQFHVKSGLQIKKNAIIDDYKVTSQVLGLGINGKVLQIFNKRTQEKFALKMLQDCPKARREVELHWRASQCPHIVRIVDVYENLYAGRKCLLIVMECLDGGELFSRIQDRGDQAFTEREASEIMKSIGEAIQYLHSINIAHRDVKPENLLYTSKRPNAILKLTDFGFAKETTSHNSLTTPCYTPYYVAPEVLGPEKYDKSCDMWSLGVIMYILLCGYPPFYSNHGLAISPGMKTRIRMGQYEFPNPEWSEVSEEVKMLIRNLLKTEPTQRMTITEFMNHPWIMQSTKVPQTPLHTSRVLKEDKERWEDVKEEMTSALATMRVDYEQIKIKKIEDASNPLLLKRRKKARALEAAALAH

`COc1ccc2c(c1N1CCN(CC3CCN(c4ccc(-c5ccc6c(ccc7sc8c(c76)NC[C@@H](C)NC8=O)n5)cn4)CC3)CC1)n(C)c(=O)n2C1CCC(=O)NC1=O` (some centres unmarked) [Compound I-256]: the Dmax at MK2 [1] and on MK2 [2] was greater than 75% each time. The DC50 at MK2 [1] and at MK2 [2] was less than 1 nM throughout.

Turning to `Cn1c(=O)n(C2CCC(=O)NC2=O)c2cccc(CCCCCCN3CC4(CCN(c5ccc6c(c5)Cn5cc(-c7ccc(F)cc7)cc5-c5nccn5-6)C4)C3)c21` (centres unmarked) [Compound I-257], on MK2 [1], the Dmax (in general, the greatest extent of degradation seen) was less than 50% and the DC50 (usually the concentration at which degradation of the target reaches its halfway point) was greater than 100 nM. On MK2 [2], the Dmax was less than 50% and the DC50 is greater than 100 nM.

Take `Cc1cc(-c2ccc3c(ccc4sc5c(c43)NC[C@@H](C)NC5=O)n2)cnc1N1CCN(CCCc2ccc3c(c2)n(C)c(=O)n3C2CCC(=O)NC2=O)CC1` (some centres unmarked) [Compound I-258]: at MK2 [1], the Dmax lay within 50 to 75% and the DC50 lay in the range of 1 to 10 nM. Also, on MK2 [2], the maximal degradation (Dmax) is less than 50% and the DC50 fell in the range of 1 to 10 nM.

On to `Cc1nc(N2CCN(CCCc3ccc4c(c3)n(C)c(=O)n4C3CCC(=O)NC3=O)CC2)ccc1-c1ccc2c(ccc3sc4c(c32)NC[C@@H](C)NC4=O)n1` (some centres unmarked) [Compound I-259], for which, at MK2 [1], the Dmax was greater than 75% and the DC50 lay in the range of 1 to 10 nM. In addition, on MK2 [2], the Dmax was less than 50% and the “MK2 MSD THP-1 degradation 24 h GMean External Abs DC50” value is recorded as “—”.

Turning to `Cc1cc(N2CCN(CCCc3ccc4c(c3)n(C)c(=O)n4C3CCC(=O)NC3=O)CC2)ccc1-c1ccc2c(ccc3sc4c(c32)NC[C@@H](C)NC4=O)n1` (some centres unmarked) [Compound I-260], at MK2 [1], the Dmax is greater than 75% and the DC50 is less than 1 nM. On MK2 [2], the Dmax lay within 50 to 75% and the “MK2 MSD THP-1 degradation 24 h GMean External Abs DC50” value is reported as “—”.

For `C[C@@H]1CN(C)c2c(sc3ccc4nc(-c5ccc(N6CCC(CN7CCN(c8cccc9c(N%10CCC(=O)NC%10=O)cncc89)CC7)CC6)cc5)ccc4c23)C(=O)N1` [Compound I-261], the Dmax was greater than 75% on MK2 [1] and less than 50% at MK2 [2]. Further, the DC50 on MK2 [1] is 10 to 100 nM; on MK2 [2], greater than 100 nM.

For the compound `C[C@@H]1CNc2c(sc3ccc4nc(-c5ccc(N6CCN(C7CN(c8cccc9c8n(C)c(=O)n9C8CCC(=O)NC8=O)C7)CC6)cc5)ccc4c23)C(=O)N1` (some centres unmarked) [Compound I-262], at MK2 [1], the Dmax was greater than 75% and the DC50 was less than 1 nM. On MK2 [2], the Dmax is greater than 75% and the DC50 was less than 1 nM.

For the compound `C[C@@H]1Cc2[nH]c(-c3ccnc(-c4ccc(N5CCC(CN6CCC(c7ccc8c(c7)n(C)c(=O)n8C7CCC(=O)NC7=O)CC6)CC5)cc4)c3)cc2C(=O)N1` (some centres unmarked) [Compound I-263], at MK2 [1], the Dmax was greater than 75% and the DC50 was less than 1 nM. In addition, on MK2 [2], the Dmax is greater than 75% and the half-maximal degradation concentration (DC50) is less than 1 nM.

Turning to `C[C@@H]1CNc2c(sc3ccc4nc(N5CCC(CN6CCN(c7ccc8c(c7)n(C)c(=O)n8C7CCC(=O)NC7=O)CC6)CC5)ccc4c23)C(=O)N1` (some centres unmarked) [Compound I-264], the Dmax at MK2 [1] and at MK2 [2] was greater than 75% each time. Further, the DC50 at MK2 [1] and on MK2 [2] was 1 to 10 nM in each case.

Regarding `C[C@@H]1CNc2c(sc3ccc4nc(N5CCN(CC6CCN(c7ccc8c(c7)n(C)c(=O)n8C7CCC(=O)NC7=O)CC6)CC5)ccc4c23)C(=O)N1` (some centres unmarked) [Compound I-265], on MK2 [1], the Dmax is greater than 75% and the DC50 was in the range of 1 to 10 nM. On MK2 [2], the Dmax is greater than 75% and the DC50 is 1 to 10 nM.

`C[C@@H]1CN(C)c2c(sc3ccc4nc(-c5ccc(N6CCN(CCCc7ccc8c(c7)n(C)c(=O)n8C7CCC(=O)NC7=O)CC6)cc5)ccc4c23)C(=O)N1` (some centres unmarked) [Compound I-266]: the Dmax at MK2 [1] and on MK2 [2] was greater than 75% each time. Besides, the DC50 at MK2 [1] and at MK2 [2] was 1 to 10 nM in each case.

On to `C[C@@H]1CN(C)c2c(sc3ccc4nc(-c5cccc(N6CCC(CN7CCN(c8cccc9c(N%10CCC(=O)NC%10=O)cncc89)CC7)CC6)c5)ccc4c23)C(=O)N1` [Compound I-267], for which, at MK2 [1], the Dmax is less than 50% and the DC50 is greater than 100 nM. In addition, at MK2 [2], the Dmax was less than 50% and the DC50 is greater than 100 nM.

Consider `C[C@@H]1CN(C)c2c(sc3ccc4nc(-c5ccc(N6CCN(CC7CCN(c8ccc9c(c8)n(C)c(=O)n9C8CCC(=O)NC8=O)CC7)CC6)nc5)ccc4c23)C(=O)N1` (some centres unmarked) [Compound I-268], for which the Dmax at MK2 [1] and on MK2 [2] was greater than 75% in each case. The DC50 on MK2 [1] and on MK2 [2] was 1 to 10 nM in each case.

For `C[C@@H]1CNc2c(sc3ccc4nc(-c5ccc(N6CCN(CC7CN(c8cccc9c8n(C)c(=O)n9C8CCC(=O)NC8=O)C7)CC6)cc5)ccc4c23)C(=O)N1` (some centres unmarked) [Compound I-269], the Dmax on MK2 [1] and at MK2 [2] was greater than 75% in each case. Further, the DC50 is 1 to 10 nM on MK2 [1] and less than 1 nM on MK2 [2].

Regarding `C[C@@H]1CNc2c(sc3ccc4nc(-c5cnc(N6CCC(CN7CCN(c8cccc9c8n(C)c(=O)n9C8CCC(=O)NC8=O)CC7)CC6)nc5)ccc4c23)C(=O)N1` (some centres unmarked) [Compound I-270], at MK2 [1], the Dmax is greater than 75% and the DC50 lay within 1 to 10 nM. Also, on MK2 [2], the Dmax was greater than 75% and the DC50 was less than 1 nM.

`C[C@@H]1CNc2c(sc3ccc4nc(-c5cnc(N6CCC(CN7CCN(c8ccc9c(c8)n(C)c(=O)n9C8CCC(=O)NC8=O)CC7)CC6)nc5)ccc4c23)C(=O)N1` (some centres unmarked) [Compound I-271]: at MK2 [1], the Dmax is greater than 75% and the DC50 is less than 1 nM. Moreover, at MK2 [2], the Dmax is greater than 75% and the DC50 was less than 1 nM.

`Cc1cc(-c2ccc3c(ccc4sc5c(c43)NC[C@@H](C)NC5=O)n2)cnc1N1CCN(CC2CCN(c3ccc4c(c3)n(C)c(=O)n4C3CCC(=O)NC3=O)CC2)CC1` (some centres unmarked) [Compound I-272]: the Dmax at MK2 [1] and at MK2 [2] was greater than 75% each time. In addition, the 50% degradation concentration (DC50) on MK2 [1] and on MK2 [2] was less than 1 nM each time.

For the compound `C[C@@H]1CN(C)c2c(sc3ccc4nc(-c5ccc(N6CCN(CC7CCN(c8cccc9c8n(C)c(=O)n9C8CCC(=O)NC8=O)CC7)CC6)cc5)ccc4c23)C(=O)N1` (some centres unmarked) [Compound I-274], on MK2 [1], the Dmax was greater than 75% and the DC50 is 10 to 100 nM. Besides, on MK2 [2], the Dmax was greater than 75% and the DC50 lay within 10 to 100 nM.

On to `C[C@@H]1CNc2c(sc3ccc4nc(-c5ccnc(N6CCN(CCCc7ccc8c(c7)n(C)c(=O)n8C7CCC(=O)NC7=O)CC6)c5)ccc4c23)C(=O)N1` (some centres unmarked) [Compound I-275], for which, on MK2 [1], the Dmax is greater than 75% and the DC50 is less than 1 nM. For the same compound, at MK2 [2], the Dmax was greater than 75% and the DC50 is less than 1 nM.

As to `C[C@@H]1CNc2c(sc3ccc4nc(-c5ccnc(N6CCN(CC7CCN(c8cccc9c8n(C)c(=O)n9C8CCC(=O)NC8=O)CC7)CC6)c5)ccc4c23)C(=O)N1` (some centres unmarked) [Compound I-276], on MK2 [1], the Dmax was greater than 75% and the DC50 was 1 to 10 nM. In addition, at MK2 [2], the Dmax is greater than 75% and the DC50 was in the range of 1 to 10 nM.

Take `C[C@@H]1CNc2c(sc3ccc4nc(-c5ccnc(N6CCC(CN7CCN(c8ccc9c(c8)n(C)c(=O)n9C8CCC(=O)NC8=O)CC7)CC6)c5)ccc4c23)C(=O)N1` (some centres unmarked) [Compound I-277]: the Dmax on MK2 [1] and at MK2 [2] was greater than 75% each time. The DC50 at MK2 [1] and on MK2 [2] was less than 1 nM in each case.

For `C[C@@H]1CNc2c(sc3ccc4nc(-c5ccnc(N6CCN(CC7CCN(c8ccc9c(c8)n(C)c(=O)n9C8CCC(=O)NC8=O)CC7)CC6)c5)ccc4c23)C(=O)N1` (some centres unmarked) [Compound I-278], the Dmax at MK2 [1] and on MK2 [2] was greater than 75% in each case. For the same compound, the DC50 on MK2 [1] and on MK2 [2] was less than 1 nM throughout.

Turning to `C[C@@H]1CNc2c(sc3ccc4nc(-c5ccc(N6CCN(CCc7ccc8c(c7)n(C)c(=O)n8C7CCC(=O)NC7=O)CC6)nc5)ccc4c23)C(=O)N1` (some centres unmarked) [Compound I-279], at MK2 [1], the Dmax is greater than 75% and the DC50 was less than 1 nM. Further, on MK2 [2], the Dmax was greater than 75% and the DC50 was less than 1 nM.

Turning to `C[C@@H]1CNc2c(sc3ccc4nc(-c5ccc(N6CCN(CCc7ccc8c(c7)n(C)c(=O)n8C7CCC(=O)NC7=O)CC6)cc5)ccc4c23)C(=O)N1` (some centres unmarked) [Compound I-280], the Dmax at MK2 [1] and at MK2 [2] was greater than 75% throughout. The DC50 at MK2 [1] and on MK2 [2] was less than 1 nM in each case.

Take `C[C@@H]1CNc2c(sc3ccc4nc(-c5cnc(N6CCN(CC7CCN(c8cccc9c8n(C)c(=O)n9C8CCC(=O)NC8=O)CC7)CC6)nc5)ccc4c23)C(=O)N1` (some centres unmarked) [Compound I-281]: on MK2 [1], the Dmax is greater than 75% and the DC50 lay in the range of 1 to 10 nM. Further, at MK2 [2], the Dmax was greater than 75% and the DC50 is less than 1 nM.

Turning to `C[C@@H]1CNc2c(sc3ccc4nc(-c5cnc(N6CCN(CC7CCN(c8ccc9c(c8)n(C)c(=O)n9C8CCC(=O)NC8=O)CC7)CC6)nc5)ccc4c23)C(=O)N1` (some centres unmarked) [Compound I-282], the Dmax at MK2 [1] and on MK2 [2] was greater than 75% each time. Also, the 50% degradation concentration (DC50) on MK2 [1] and on MK2 [2] was less than 1 nM each time.
